Structures can show the parent of a compound that is named as a salt.
Columns and labels:
[1] = Feedlot trial of leptin Arg25Cys genotype x Zilpaterol Hydrochloride administration (Cactus Research); format: in vivo, cattle; conditions: for daily dry matter intake (DDMI) during ZH treatment: last 24 days on feed; for % USDA stamped quality grade Choice+Prime, effect of ZH administration: vs no ZH
Method: In a trial completed at a private research facility in Texas, USA (Cactus Research, Amarillo Tex.) leptin genotype was assessed for potential interaction with Zilpaterol Hydrochloride (ZH). The trial consisted of 4,279 animals and occurred from summer of 2008 and carried through to spring of 2009. The trial was conducted as a randomized complete block design with approximately 90 animals being placed into pens based on leptin genotype and randomly assigned to drug treatment with pen being the experimental unit. Treatment structure was a 3×2 factorial including three letting genotypes (CC, CT and TT) and two drug treatments (zero control and drug treatment). Pens were blocked by time, specifically arrival date of the animal to the feedlot. Each block was slaughtered on the same day, and the complete process replicated eight times resulting in eight blocks. Below is a schematic summary of the trial design.
Upon arrival into the feedlot animals were individually weighed and back fat was measured using ultrasound. These measured were also taken 65, days on feed, and then one week prior to ZH treatment and 2-3 days prior to slaughter. All cattle were slaughtered and USDA carcass data were measured. Growth data were fitted to a non-linear growth model.
Backfat was measure by ultrasound at: • 1) Arrival • 2) 65 days on feed • 3) 1 week prior to zilpaterol initiation • 4) 2-3 days prior to slaughter 8 total blocks, 6 treatment pens per block, and 4,179 head total (avg initial wt=875 lbs) Within blocks, all treatments were killed on the same day (avg days on feed=129

[2] = RH 300 mg/steer/day, ZH 6 mg/steer/day; cited from earlier work
B-AR's = conditions: swine; within the first 7 days of treatment with RH; cited from earlier work

| Structure (SMILES) | hot carcass weight (HCW) gain response to ZH administration ([1]; CC and CT genotype animals) | % empty body fat (% EBF) change when fed ZH ([1]; CC genotype animals) | marbling score, effect of ZH administration ([1]; CC genotype animals) | daily dry matter intake (DDMI) during ZH treatment ([1]; CC genotype animals) | % USDA stamped quality grade Choice+Prime, effect of ZH administration ([1]; CC genotype animals) | daily dry matter intake (DDMI) during ZH treatment ([1]; CT and TT genotype animals) | marbling score, effect of ZH administration ([1]; TT and CT genotype animals) | rib eye area (REA) gain with ZH administration ([1]; TT and CT genotype animals) [square inches] | % USDA stamped quality grade Choice+Prime, effect of ZH administration ([1]; TT and CT genotype animals) | % empty body fat (% EBF) change when fed ZH ([1]; TT genotype animals) | hot carcass weight (HCW) gain response to ZH administration ([1]; TT genotype animals) | LM (Longissimus Muscle) area [2] | sheer force and toughness of the muscle tissue [2] | B-AR down-regulation in adipose tissue (B-AR's) [%] |
| --- | --- | --- | --- | --- | --- | --- | --- | --- | --- | --- | --- | --- | --- | --- |
| CC(C)N[C@@H]1CCn2c(=O)[nH]c3cccc(c32)[C@H]1O (racemic) [ZH, Zilpaterol Hydrochloride] | largest response | smallest reduction | slight reduction | no change | unaffected | significant reduction | much greater reduction | 1.4 | significant reductions | largest reduction | lowest response | larger | increased |  |
| CC(CCc1ccc(O)cc1)NCC(O)c1ccc(O)cc1 (stereo not shown) [RH, Ractopamine Hydrochloride] |  |  |  |  |  |  |  |  |  |  |  | no effect | increased | ~50 |

Source: patent US20100305101A1, “Leptin genotype and ß-adrenergic agonists” (priority 2009, published 2010)
